Measured values: patent publication US20260284240A1, “RADIOLABELED COMPOUND FOR USE IN A METHOD OF TREATING CARBONIC ANHYDRASE IX POSITIVE DISEASES” (DEBIOPHARM INTERNATIONAL S.A., priority 2023, published 2026)
Where two headings read alike, the source gives them in different places. Starred links: 1 amine or outer side, 2 acyl side, 3 side chain; linkers in the order of their positions; H or OH if unused. Positions of bridges follow the written chain, without caps; N, C: chain ends. Non-standard residues stand in square brackets, D forms with d. Residues, ends and D or L forms follow the SMILES beside them. *: point of attachment. Phe(3-NHCO(CH2)3SO2NH2) = N[C@@H](Cc1cccc(NC(=O)CCCS(N)(=O)=O)c1)C(=O)O; DOTA = O=C(O)CN1CCN(CC(=O)O)CCN(CC(=O)*)CCN(CC(=O)O)CC1; mXylylene = c1cc(C[*:1])cc(C[*:2])c1; X1 = O=C(CN1CCN([*:1])CC1)[*:2]

Key:
Format in all cases: in vivo, dog
[1] = GLP extended single-dose i.v. toxicity study in beagle dogs
Protocol: (§1) The following parameters and endpoints were evaluated: mortality, clinical observations, body weights, food consumption, body temperature, local reactions, ophthalmology, clinical pathology parameters (hematology, coagulation, clinical chemistry, and urinalysis), cardiovascular and respiratory safety pharmacology endpoints along with FOB evaluation, organ weights, and macroscopic and microscopic examinations, and TK parameters. The animals from subset A (3 males and 3 females per group) were sampled for toxicokinetics (TK) at: pre-dose, 5 min, 15 min, 30 min, 1 h, 2 h, 3 h and 6 h. Blood samples were collected in K2EDTA tubes. Plasma was prepared by centrifugation (2500 g for 10 minutes, +4° C.) within 1 hour after collection, and then frozen within 1 hour after centrifugation and stored at −80° C. […] Chromatographic separation was achieved using a Waters Acquity UPLC system with a Waters Acquity HSS T3 C18 2.1×50 mm, 1.8 μm column. Chromatography was conducted at 50° C. at a flow rate of 0.7 mL/min using a mobile phase consisting of A: 1% formic acid in acetonitrile, and B: 1% formic acid in water, according to the following linear gradient: 0 to 0.1 min: 90% B; 0.1 to 4.1 min: from 90% B to 74% B; 4.1 to 4.2 min: from 74% B to 5% B; 4.2 to 4.6 min: 5% B; 4.6 to 4.7 min: from 5% B to 90% B; 4.7-5.1 min; 90% B. Detection was performed using a Sciex AP16600 TOF mass spectrometer. Toxicokinetic parameters were estimated from concentration-time data using Phoenix pharmacokinetic software (version 6.4, Certara L.P.). A non-compartmental approach consistent with the bolus intravenous injection was used for parameter estimation.

[2] = Toxicokinetics in the dose range finding study in dogs (LC-HRMS plasma); details: for CL / Vss / t1/2 / Dose-normalized AUClast / AUClast / concentration at […]: dog plasma, i.v. bolus; for CL / Vss / t1/2 / AUClast / concentration at […]: mean n = 2; for Dose-normalized AUClast: AUClast divided by dose in μg/kg; for concentration at […]: iv, read-out: C15 min
Protocol: The following parameters and endpoints were evaluated: mortality, clinical observations, body weights, food consumption, local reactions, clinical pathology parameters (hematology, coagulation, and clinical chemistry), organ weights, and macroscopic examinations. Both animals were sampled for toxicokinetics (TK) on each dosing occasion (i.e., on day 1, day 5, day 9 and day 13) at: pre-dose, 15 min, 30 min, 1 h, 6 h and 24 h. Blood samples were collected in K2EDTA tubes. Plasma was prepared by centrifugation (2500 g for 10 minutes, +4° C.) within 1 hour after collection, and then frozen within 1 hour after centrifugation and stored at −80° C. […] Chromatographic separation was achieved using a Waters Acquity UPLC system with a Waters Acquity HSS T3 C18 2.1×50 mm, 1.8 μm column. Chromatography was conducted at 50° C. at a flow rate of 0.7 mL/min using a mobile phase consisting of A: acetonitrile, and B: 1% formic acid in water, according to the following linear gradient: 0 to 0.1 min: 90% B; 0.1 to 4.1 min: from 90% B to 74% B; 4.1 to 4.2 min: from 74% B to 5% B; 4.2 to 4.6 min: 5% B; 4.6 to 4.7 min: from 5% B to 90% B; 4.7-5.1 min; 90% B. Detection was performed using a Sciex AP16600 TOF mass spectrometer. Toxicokinetic parameters were estimated from concentration-time data using Phoenix pharmacokinetic software (version 6.4, Certara L.P.). A non-compartmental approach consistent with the bolus intravenous injection was used for parameter estimation. […] Neither in-life parameters nor clinical pathology parameters were affected. In addition, there were no related macroscopic observations noted at necropsy.

[3] = Toxicokinetics in the extended single-dose toxicity study in dogs; details: for concentration at 5 min: plasma, iv, read-out: C5 min; for concentration at 5 min / AUClast / CL / Vss: mean n = 3; for t1/2: harmonic mean
Protocol: as §1

[4] = female beagle dogs, single i.v. bolus 16 μg/kg
[5] = female beagle dogs, single i.v. bolus 80 μg/kg
[6] = female beagle dogs, single i.v. bolus 400 μg/kg
[7] = male beagle dogs, single i.v. bolus 16 μg/kg
[8] = male beagle dogs, single i.v. bolus 80 μg/kg
[9] = male beagle dogs, single i.v. bolus 400 μg/kg

CC(C)C[C@@H]1NC(=O)[C@H](Cc2cccc(NC(=O)CCCS(N)(=O)=O)c2)NC(=O)[C@H](CC(=O)O)NC(=O)[C@H]2CCCN2C(=O)[C@H](CCC(=O)O)NC(=O)[C@@H](NC(=O)[C@H](CCC(N)=O)NC(=O)CN2CCN(C(=O)CN3CCN(CC(=O)O)CCN(CC(=O)O)CCN(CC(=O)O)CC3)CC2)CSCc2cccc(c2)CSC[C@@H](C(N)=O)NC(=O)[C@H](CO)NC(=O)[C@H](Cc2c[nH]c3ccccc23)NC(=O)[C@H]([C@@H](C)O)NC1=O [DPI-4452, DOTA-PPAc-Gln-[Cys(3MeBn)-Glu-pro-Asp-Af3(Cpsu)-Leu-Thr-Trp-Ser-Cys]-NH2] ({DOTA}-[X1]QCE[dP]D[Phe(3-NHCO(CH2)3SO2NH2)]LTWSC-NH2; linker 3-12 via mXylylene)
Human equivalent dose of the dog NOAEL ([1]; considering a 60 kg human): 13.3 mg
Clinical signs or local reactions ([1]; dog, single i.v. 16, 80, 400 μg/kg): no DPI-4452 treatment-related clinical signs or local reactions were observed
Tolerability ([1]; dog, single i.v. bolus up to 400 μg/kg): well tolerated
CL ([2]; Day 1, […], 1440 min): 0.702 L/h/kg
Vss ([2]; Day 1, […], 1440 min): 0.22 L/kg
t1/2 ([2]; Day 1, […], 1440 min): 15 min
Dose-normalized AUClast ([2]; Day 1, […]): 1.36
AUClast ([2]; Day 5, 0.08 mg/kg, 7200 min): 0.117 µg·h/mL
Dose-normalized AUClast ([2]; Day 5, 0.08 mg/kg): 1.46
AUClast ([2]; Day 9, 0.4 mg/kg, 12960 min): 0.926 µg·h/mL
CL ([2]; Day 9, 0.4 mg/kg, 12960 min): 0.41 L/h/kg
Vss ([2]; Day 9, 0.4 mg/kg, 12960 min): 0.24 L/kg
t1/2 ([2]; Day 9, 0.4 mg/kg, 12960 min): 29.4 min
Dose-normalized AUClast ([2]; Day 9, 0.4 mg/kg): 2.31
AUClast ([2]; Day 13, 0.8 mg/kg, 18720 min): 3.53 µg·h/mL
CL ([2]; Day 13, 0.8 mg/kg, 18720 min): 0.211 L/h/kg
Vss ([2]; Day 13, 0.8 mg/kg, 18720 min): 0.32 L/kg
t1/2 ([2]; Day 13, 0.8 mg/kg, 18720 min): 52.8 min
Dose-normalized AUClast ([2]; Day 13, 0.8 mg/kg): 4.42
Dose proportionality of exposure ([2]; dog, 25-800 μg/kg i.v.): exposure increased more than dose-proportionally
concentration at […] ([2]; Day 1, 0.025 mg/kg): 0.0468 µg/mL
concentration at […] ([2]; Day 5, 0.08 mg/kg): 0.156 µg/mL
concentration at […] ([2]; Day 9, 0.4 mg/kg): 0.88 µg/mL
concentration at […] ([2]; Day 13, 0.8 mg/kg): 2 µg/mL
Exposure difference between male and female dogs ([3]; all dose levels): No appreciable difference
Mean AUCtlast at the NOAEL, females ([3]; dog, 400 μg/kg i.v.): 0.771 µg·h/mL
Mean AUCtlast at the NOAEL, males ([3]; dog, 400 μg/kg i.v.): 0.854 µg·h/mL
concentration at 5 min ([3]; dog, 0.08 mg/kg, female beagle dogs, single i.v. bolus 80 μg/kg): 0.346 µg/mL
concentration at 5 min ([3]; dog, 0.08 mg/kg, male beagle dogs, single i.v. bolus 80 μg/kg): 0.332 µg/mL
concentration at 5 min ([3]; dog, 0.4 mg/kg, female beagle dogs, single i.v. bolus 400 μg/kg): 1.76 µg/mL
concentration at 5 min ([3]; dog, 0.4 mg/kg, male beagle dogs, single i.v. bolus 400 μg/kg): 1.84 µg/mL
concentration at 5 min ([3]; dog, […], female beagle dogs, single i.v. bolus 16 μg/kg): 0.0377 µg/mL
concentration at 5 min ([3]; dog, […], male beagle dogs, single i.v. bolus 16 μg/kg): 0.0435 µg/mL
t1/2 [3, 4]: 14.3 min
AUClast [3, 4]: 0.0124 µg·h/mL
CL [3, 4]: 1.27 L/h/kg
Vss [3, 4]: 0.30 L/kg
t1/2 [3, 5]: 23.2 min
AUClast [3, 5]: 0.144 µg·h/mL
CL [3, 5]: 0.556 L/h/kg
Vss [3, 5]: 0.21 L/kg
t1/2 [3, 6]: 21.8 min
CL [3, 6]: 0.518 L/h/kg
Vss [3, 6]: 0.19 L/kg
t1/2 [3, 7]: 15.5 min
AUClast [3, 7]: 0.014 µg·h/mL
CL [3, 7]: 1.1 L/h/kg
Vss [3, 7]: 0.26 L/kg
t1/2 [3, 8]: 21.7 min
AUClast [3, 8]: 0.132 µg·h/mL
CL [3, 8]: 0.606 L/h/kg
Vss [3, 8]: 0.21 L/kg
t1/2 [3, 9]: 23.7 min
CL [3, 9]: 0.473 L/h/kg
Vss [3, 9]: 0.19 L/kg
